Patent publication US20190225650A1, “PEPTIDOMIMETIC MACROCYCLES AND USE THEREOF IN REGULATING HIF1ALPHA” (AILERON THERAPEUTICS, INC., priority 2013, published 2019)
Bridge positions count the residues as written; N and C are the ends. Square brackets hold non-standard residues; d marks the D form. Peptide text beside a SMILES is read from it. R8 = C=CCCCCCC[C@@](C)(N)C(=O)O; S5 = C=CCCC[C@](C)(N)C(=O)O; Nle = CCCC[C@H](N)C(=O)O

Key:
HRE-bla ME-180 cells [1] = assay: Reporter gene assay (HRE-bla ME-180 HIF reporter, GeneBLAzer); format: cell-based, human; conditions: for EC50: 24 hour normoxia
Method in brief: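 A FRET β-lactamase readout of HIF transcription was used. After compound treatment in 0.3% DMSO/media under normoxic conditions, 20 μl of 6× LiveBLAzer-FRET B/G (CCF4-AM) substrate was added. Plates sat 3 hr at room temperature in the dark and were read at 409 Ex/460Em and 409Ex/530Em on a Synergy 2. Inhibition was compared against DMSO vehicle controls, with chetomin as positive control.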

HRE-bla ME-180 cells [2] = assay: Cell proliferation assay (viability, MTT, 1% FBS); format: cell-based, human
Method in brief: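 Viable cell number was measured with the CellTiter 96 (MTT) kit after compounds were applied for a 16 h normoxic (21% O2) pretreatment, followed by further normoxic or hypoxic (1% O2) culture. Cells: 2×10^4 ME-180 per well, Opti-MEM + 1% FBS, 0.5% DMSO vehicle.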

[3] = target: T1, flag-tagged HIF1α (AA 786-826) / His6-tagged p300 (AA 323-423) complex (Homo sapiens, UniProt Q09472); assay: HIF1α p300 displacement assay (TR FRET, +CHAPS); format: binding; conditions: read-out: IC50 (nM) (HIF1α_p300 Displacement + CHAPS)
T1 construct: His6-tagged p300 (AA 323-423); made in house; host or cells: E. coli (pETDuet vector)
Method in brief: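 In this TR-FRET displacement format, peptides compete HIF1α C-terminal transactivation domain off p300-CH. They were preincubated 1 h at room temperature with 300 nM complex in HEPES pH 7.4/NaCl buffer with 7.5 mM CHAPS and 1 mM DTT. Anti-His-D2 (4 nM) and anti-Flag-K (0.5 μM) followed for 2 h, and a one-site fit of the fluorescence ratio gave IC50.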

Row | Structure (SMILES) | EC50 (HRE-bla ME-180 cells [1]) [µM] | IC50 [3] [nM] | 18 h Avg % max inhibition at top conc (HIF Rptr-24 hrs normoxia) (μM) (HRE-bla ME-180 cells [1]) | Viability 1% FBS AVG (MTT V3-24 hr Normoxia) (μM) (HRE-bla ME-180 cells [2])
1 | CCCC[C@H](NC(=O)[C@H](Cc1ccccc1)NC(=O)[C@@H](NC(=O)[C@H](C)NC(=O)[C@H](CCC(N)=O)NC(=O)[C@H](CC(=O)O)NC(=O)[C@@H](NC(=O)[C@H](Cc1ccccc1)NC(C)=O)[C@@H](C)CC)C(C)C)C(=O)N[C@@]1(C)CCCC=CCCC[C@@](C)(C(=O)N[C@@H](CCCC)C(=O)N[C@@H](C)C(=O)N[C@@H](CC(C)C)C(=O)N[C@@H](CC(C)C)C(N)=O)NC(=O)[C@H]([C@@H](C)CC)NC(=O)[C@H](C(C)C)NC(=O)[C@H](CC(N)=O)NC1=O [SP-251] (Ac-FIDQAVF[Nle][S5]NVI[S5][Nle]ALL-NH2; staple 9-13) | ≤ 5 | > 700 | ++++ (≥50: ++++) | + (<5: +)
2 | CC[C@H](C)[C@H](NC(=O)[C@H](Cc1ccccc1)NC(C)=O)C(=O)N[C@@H](CC(=O)O)C(=O)N[C@@H](CCC(=O)O)C(=O)N[C@@]1(C)CCCC=CCCC[C@@](C)(C(=O)N[C@@H](CC(C)C)C(=O)N[C@H](C(=O)N[C@H](C(=O)N[C@@H](CCC(=O)O)C(=O)N[C@@H](CCSC)C(=O)N[C@@H](C)C(=O)N[C@@H](CC(C)C)C(=O)N[C@@H](CC(=O)O)C(=O)N[C@@H](CCCNC(=N)N)C(=O)N[C@H](C(=O)N[C@@H](CCCCN)C(=O)N[C@@H](CCC(=O)O)C(=O)N[C@@H](CC(C)C)C(=O)N2CCC[C@H]2C(=O)N[C@@H](CCC(=O)O)C(=O)N[C@@H](CC(C)C)C(=O)N[C@@H](Cc2c[nH]c3ccccc23)C(=O)N[C@@H](CC(C)C)C(N)=O)[C@@H](C)CC)[C@@H](C)CC)C(C)C)NC(=O)[C@H](C)NC(=O)[C@H](CC(C)C)NC(=O)[C@H](C(C)C)NC1=O [SP-112] (Ac-FIDE[S5]VLA[S5]LVIEMALDRIKELPELWL-NH2; staple 5-9) | 5 to 15 | ≤ 200 | +++ (≤25 but <50: +++) | ++++ (≥30: ++++)
3 | CCCC[C@@H]1NC(=O)[C@H](CC(C)C)NC(=O)[C@](C)(NC(=O)[C@H](CCC(=O)O)NC(=O)[C@H](CCC(=O)O)NC(=O)[C@H](CC(=O)O)NC(=O)[C@@H](NC(=O)[C@H](CC(N)=O)NC(=O)[C@@H](NC(=O)[C@]2(C)CCCC=CCCCCCC[C@@](C)(NC(=O)[C@H](CCC(=O)O)NC(=O)CNC(=O)[C@H](CCC(N)=O)NC(=O)[C@H](CC(C)C)NC(=O)[C@H](CC(C)C)NC(C)=O)C(=O)N[C@@H](CC(C)C)C(=O)N[C@@H](CC(C)C)C(=O)N[C@@H](CCCNC(=N)N)C(=O)N[C@@H](C)C(=O)N[C@@H](CC(C)C)C(=O)N[C@@H](CC(=O)O)C(=O)N2)C(C)C)[C@@H](C)CC)CCCCCCC=CCCC[C@@](C)(C(=O)N[C@@H](CCCC)C(=O)NCC(N)=O)NC(=O)[C@H]([C@@H](C)CC)NC(=O)[C@H](C(C)C)NC(=O)[C@H](CC(C)C)NC(=O)[C@H](CO)NC1=O [SP-332] (Ac-LLQGE[R8]LLRALD[S5]VNIDEE[R8]L[Nle]SLVI[S5][Nle]G-NH2; staple 6-13, 20-27) | > 30 | ≤ 200 | + (<10: +) | ++++ (≥30: ++++)
4 | CCCC[C@H](NC(=O)[C@H](CCC(=O)O)NC(=O)[C@@H](NC(=O)[C@@H](NC(=O)[C@H](CC(C)C)NC(=O)[C@]1(C)CCCC=CCCC[C@](C)(NC(=O)[C@H](CCC(=O)O)NC(=O)[C@H](CC(=O)O)NC(=O)[C@@H](NC(=O)[C@H](Cc2ccccc2)NC(C)=O)[C@@H](C)O)C(=O)N[C@@H](C(C)C)C(=O)N[C@@H](CC(C)C)C(=O)N[C@@H](CCCC)C(=O)N1)C(C)C)[C@@H](C)CC)C(=O)N[C@@H](C)C(=O)N[C@@H](CC(C)C)C(N)=O [SP-153] (Ac-FTDE[S5]VL[Nle][S5]LVIE[Nle]AL-NH2; staple 5-9) | > 30 | 400 to 700 | + (<10: +) | ++++ (≥30: ++++)

Further lines, with some results ahead:

Row | EC50 (HRE-bla ME-180 cells [1]) [µM] | IC50 [3] [nM] | Structure (SMILES) | 18 h Avg % max inhibition at top conc (HIF Rptr-24 hrs normoxia) (μM) (HRE-bla ME-180 cells [1]) | Viability 1% FBS AVG (MTT V3-24 hr Normoxia) (μM) (HRE-bla ME-180 cells [2])
5 | > 30 | 200 to 400 | CCCC[C@@H]1NC(=O)[C@H](CC(C)C)NC(=O)[C@H](C(C)C)NC(=O)[C@@](C)(NC(=O)[C@H](CCC(=O)O)NC(=O)[C@H](CC(=O)O)NC(=O)[C@@H](NC(=O)[C@H](Cc2ccccc2)NC(C)=O)[C@@H](C)CC)CCCC=CCCCC2(CCCC=CCCC[C@](C)(C(=O)N[C@@H](C)C(=O)N[C@@H](C)C(=O)N[C@@H](CC(C)C)C(N)=O)NC(=O)[C@H]([C@@H](C)CC)NC(=O)[C@H](C(C)C)NC(=O)[C@H](CC(C)C)NC2=O)NC1=O (stereo partly drawn) [SP-211] | + (<10: +) | ++++ (≥30: ++++)
6 | > 30 | 200 to 400 | CCCC[C@H](NC(=O)[C@H](CCC(=O)O)NC(=O)[C@]1(C)CCCC=CCCCCCC[C@@](C)(NC(=O)[C@H](CCC(=O)O)NC(=O)[C@H](C)NC(=O)[C@H](C)NC(=O)[C@H](C)NC(=O)[C@H](C)NC(=O)[C@H](CCC(N)=O)NC(=O)[C@]2(C)CCCC=CCCC[C@](C)(NC(=O)[C@H](CC(C)C)NC(=O)[C@H](CCC(=O)O)NC(=O)[C@H](CCC(=O)O)NC(=O)CNC(=O)[C@H](CCC(N)=O)NC(=O)[C@H](CC(C)C)NC(=O)[C@H](CC(C)C)NC(C)=O)C(=O)N[C@@H](CCCNC(=N)N)C(=O)N[C@@H](C)C(=O)N[C@@H](CC(C)C)C(=O)N2)C(=O)N[C@@H](C(C)C)C(=O)N[C@@H](CC(C)C)C(=O)N[C@@H](CCCC)C(=O)N[C@@H](CO)C(=O)N[C@@H](CC(C)C)C(=O)N[C@@H](C(C)C)C(=O)N1)C(N)=O [SP-359] (Ac-LLQGEEL[S5]RAL[S5]QAAAAE[R8]VL[Nle]SLV[S5]E[Nle]-NH2; staple 8-12, 19-26) | +++ (≤25 but <50: +++) | ++++ (≥30: ++++)
7 | > 30 | > 700 | CCCC[C@H](NC(=O)[C@H](CCC(=O)O)NC(=O)[C@@H](NC(=O)[C@@H](NC(=O)[C@H](CC(C)C)NC(=O)[C@]1(C)CCCC=CCCC[C@](C)(NC(=O)[C@H](C)NC(=O)[C@H](CC(=O)O)NC(=O)[C@@H](NC(=O)[C@H](Cc2ccccc2)NC(C)=O)[C@@H](C)CC)C(=O)N[C@@H](C(C)C)C(=O)N[C@@H](CC(C)C)C(=O)N[C@@H](CCCC)C(=O)N1)C(C)C)[C@@H](C)CC)C(=O)N[C@@H](C)C(=O)N[C@@H](CC(C)C)C(N)=O [SP-148] (Ac-FIDA[S5]VL[Nle][S5]LVIE[Nle]AL-NH2; staple 5-9) | +++ (≤25 but <50: +++) | ++++ (≥30: ++++)
8 | > 30 | > 700 | CCCC[C@H](NC(=O)[C@H](CC(C)C)NC(=O)[C@@H](NC(=O)[C@H](CCC(=O)O)NC(=O)[C@H](CCC(=O)O)NC(=O)[C@H](CC(=O)O)NC(=O)[C@@H](NC(=O)[C@H](CC(N)=O)NC(=O)[C@@H](NC(=O)[C@H](CCC(N)=O)NC(=O)[C@H](CC(=O)O)NC(=O)[C@H](CC(C)C)NC(=O)[C@]1(C)CCCC=CCCC[C@](C)(NC(=O)[C@H](CCC(=O)O)NC(=O)CNC(=O)[C@H](CCC(N)=O)NC(=O)[C@H](CC(C)C)NC(=O)[C@H](CC(C)C)NC(C)=O)C(=O)N[C@@H](CC(C)C)C(=O)N[C@@H](CC(C)C)C(=O)N[C@@H](CCCNC(=N)N)C(=O)N1)C(C)C)[C@@H](C)CC)C(C)C)C(=O)N[C@@]1(C)CCCC=CCCC[C@@](C)(C(=O)N[C@@H](CCCC)C(=O)NCC(N)=O)NC(=O)[C@H]([C@@H](C)CC)NC(=O)[C@H](C(C)C)NC(=O)[C@H](CC(C)C)NC1=O [SP-307] (Ac-LLQGE[S5]LLR[S5]LDQVNIDEEVL[Nle][S5]LVI[S5][Nle]G-NH2; staple 6-10, 23-27) | +++ (≤25 but <50: +++) | ++++ (≥30: ++++)
9 | > 30 | 400 to 700 | CCCC[C@H](NC(=O)[C@H](CCC(=O)O)NC(=O)[C@@H](NC(=O)[C@@H](NC(=O)[C@H](CO)NC(=O)[C@]1(C)CCCC=CCCC[C@](C)(NC(=O)[C@H](CCC(=O)O)NC(=O)[C@H](CC(=O)O)NC(=O)[C@@H](NC(=O)[C@H](Cc2ccccc2)NC(C)=O)[C@@H](C)CC)C(=O)N[C@@H](C(C)C)C(=O)N[C@@H](CC(C)C)C(=O)N[C@@H](CCCC)C(=O)N1)C(C)C)[C@@H](C)CC)C(=O)N[C@@H](C)C(=O)N[C@@H](CC(C)C)C(N)=O [SP-144] (Ac-FIDE[S5]VL[Nle][S5]SVIE[Nle]AL-NH2; staple 5-9) | ++++ (≥50: ++++) | +++ (≤15 but <30: +++)
